The text below walks through data of publication PMC7794549, “A capsaicinoid-based soft drug, AG1529, for attenuating TRPV1-mediated histaminergic and inflammatory sensory neuron excitability” (Scientific Reports, 2021).

Usually inhibition stands for the drop in the measured response relative to a control, in per cent. As a reminder, the IC50 is the point on the concentration scale where inhibition reaches its midpoint.

Common to all, as to format: cell-based
The target in assay [1] is T1, hTRPA1 (Homo sapiens, UniProt O75762).
T1 construct: gene TRPA1
As to the kind of experiment: whole-cell patch-clamp, AITC-evoked currents in HEK293 cells, […].

Assay [2] concerns the target T1, hTRPA1. Briefly: whole-cell patch-clamp, AITC-evoked currents in HEK293 cells; % inhibition at […]. Background: Patch clamp records ionic current or voltage across a cell membrane.
The next assay has as its target T2, hTRPM8 (Homo sapiens, UniProt Q7Z2W7).
T2 construct: gene TRPM8
As to the kind of experiment: whole-cell patch-clamp, menthol-evoked currents in HEK293 cells; % block at […].

In a further assay the target is T3, rTRPV1 (Rattus norvegicus, UniProt O35433).
T3 construct: gene Trpv1
Briefly: Ca2+ microfluorography.

For the next assay, the target named is T4, hTRPV1 (Homo sapiens, UniProt Q8NER1).
T4 construct: gene TRPV1
Briefly: whole-cell patch-clamp, capsaicin-evoked currents in HEK293 cells expressing hTRPV1.

T1 sequence (O75762 whole entry): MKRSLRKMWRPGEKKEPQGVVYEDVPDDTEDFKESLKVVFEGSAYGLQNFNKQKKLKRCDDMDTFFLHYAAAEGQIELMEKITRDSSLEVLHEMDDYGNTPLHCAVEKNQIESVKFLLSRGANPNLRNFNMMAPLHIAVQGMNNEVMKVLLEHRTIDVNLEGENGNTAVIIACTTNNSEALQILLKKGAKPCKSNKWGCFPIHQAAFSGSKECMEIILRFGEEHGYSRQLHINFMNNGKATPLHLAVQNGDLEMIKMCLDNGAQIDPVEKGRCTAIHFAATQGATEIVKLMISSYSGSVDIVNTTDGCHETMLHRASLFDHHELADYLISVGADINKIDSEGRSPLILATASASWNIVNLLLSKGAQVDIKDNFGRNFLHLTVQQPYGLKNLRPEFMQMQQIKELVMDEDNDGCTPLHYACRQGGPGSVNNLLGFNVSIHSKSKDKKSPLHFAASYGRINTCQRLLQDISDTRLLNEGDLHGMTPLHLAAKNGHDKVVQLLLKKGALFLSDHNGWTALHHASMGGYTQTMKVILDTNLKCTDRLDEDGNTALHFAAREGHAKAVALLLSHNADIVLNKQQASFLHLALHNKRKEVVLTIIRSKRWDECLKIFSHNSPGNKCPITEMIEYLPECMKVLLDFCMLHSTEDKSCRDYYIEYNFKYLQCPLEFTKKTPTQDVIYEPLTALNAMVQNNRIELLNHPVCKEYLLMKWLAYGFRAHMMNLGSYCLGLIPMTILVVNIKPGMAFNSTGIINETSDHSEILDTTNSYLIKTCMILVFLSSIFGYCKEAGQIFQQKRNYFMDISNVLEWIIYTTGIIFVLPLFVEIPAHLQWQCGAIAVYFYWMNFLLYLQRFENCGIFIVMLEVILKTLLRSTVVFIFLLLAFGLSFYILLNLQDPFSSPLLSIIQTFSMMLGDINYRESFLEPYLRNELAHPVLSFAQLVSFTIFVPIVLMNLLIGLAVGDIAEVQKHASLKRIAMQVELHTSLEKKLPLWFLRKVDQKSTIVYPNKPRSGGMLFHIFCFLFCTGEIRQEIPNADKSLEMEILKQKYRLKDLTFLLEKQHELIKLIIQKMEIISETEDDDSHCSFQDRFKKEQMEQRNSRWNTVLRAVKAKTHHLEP
T4 sequence (Q8NER1 whole entry): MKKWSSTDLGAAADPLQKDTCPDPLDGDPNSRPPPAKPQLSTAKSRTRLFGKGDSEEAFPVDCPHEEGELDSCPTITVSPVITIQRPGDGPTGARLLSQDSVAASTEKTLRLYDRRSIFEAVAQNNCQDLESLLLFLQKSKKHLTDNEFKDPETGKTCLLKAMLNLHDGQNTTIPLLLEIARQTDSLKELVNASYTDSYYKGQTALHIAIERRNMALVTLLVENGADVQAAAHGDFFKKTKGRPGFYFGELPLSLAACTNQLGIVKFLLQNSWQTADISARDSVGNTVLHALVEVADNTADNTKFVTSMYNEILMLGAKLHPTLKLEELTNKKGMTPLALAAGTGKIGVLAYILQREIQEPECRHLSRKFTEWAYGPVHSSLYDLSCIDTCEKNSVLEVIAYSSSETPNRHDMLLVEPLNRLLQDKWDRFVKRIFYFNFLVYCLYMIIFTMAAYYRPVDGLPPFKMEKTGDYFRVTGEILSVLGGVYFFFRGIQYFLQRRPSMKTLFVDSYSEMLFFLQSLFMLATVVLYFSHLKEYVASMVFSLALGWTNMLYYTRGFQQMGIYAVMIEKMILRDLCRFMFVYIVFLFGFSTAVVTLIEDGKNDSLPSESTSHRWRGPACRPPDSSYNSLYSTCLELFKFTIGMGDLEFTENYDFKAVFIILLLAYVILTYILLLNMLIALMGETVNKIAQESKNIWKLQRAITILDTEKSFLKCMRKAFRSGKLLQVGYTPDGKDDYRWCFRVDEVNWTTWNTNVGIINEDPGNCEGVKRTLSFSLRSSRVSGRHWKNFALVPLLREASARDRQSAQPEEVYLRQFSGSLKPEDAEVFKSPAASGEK
T2 sequence (Q7Z2W7 whole entry): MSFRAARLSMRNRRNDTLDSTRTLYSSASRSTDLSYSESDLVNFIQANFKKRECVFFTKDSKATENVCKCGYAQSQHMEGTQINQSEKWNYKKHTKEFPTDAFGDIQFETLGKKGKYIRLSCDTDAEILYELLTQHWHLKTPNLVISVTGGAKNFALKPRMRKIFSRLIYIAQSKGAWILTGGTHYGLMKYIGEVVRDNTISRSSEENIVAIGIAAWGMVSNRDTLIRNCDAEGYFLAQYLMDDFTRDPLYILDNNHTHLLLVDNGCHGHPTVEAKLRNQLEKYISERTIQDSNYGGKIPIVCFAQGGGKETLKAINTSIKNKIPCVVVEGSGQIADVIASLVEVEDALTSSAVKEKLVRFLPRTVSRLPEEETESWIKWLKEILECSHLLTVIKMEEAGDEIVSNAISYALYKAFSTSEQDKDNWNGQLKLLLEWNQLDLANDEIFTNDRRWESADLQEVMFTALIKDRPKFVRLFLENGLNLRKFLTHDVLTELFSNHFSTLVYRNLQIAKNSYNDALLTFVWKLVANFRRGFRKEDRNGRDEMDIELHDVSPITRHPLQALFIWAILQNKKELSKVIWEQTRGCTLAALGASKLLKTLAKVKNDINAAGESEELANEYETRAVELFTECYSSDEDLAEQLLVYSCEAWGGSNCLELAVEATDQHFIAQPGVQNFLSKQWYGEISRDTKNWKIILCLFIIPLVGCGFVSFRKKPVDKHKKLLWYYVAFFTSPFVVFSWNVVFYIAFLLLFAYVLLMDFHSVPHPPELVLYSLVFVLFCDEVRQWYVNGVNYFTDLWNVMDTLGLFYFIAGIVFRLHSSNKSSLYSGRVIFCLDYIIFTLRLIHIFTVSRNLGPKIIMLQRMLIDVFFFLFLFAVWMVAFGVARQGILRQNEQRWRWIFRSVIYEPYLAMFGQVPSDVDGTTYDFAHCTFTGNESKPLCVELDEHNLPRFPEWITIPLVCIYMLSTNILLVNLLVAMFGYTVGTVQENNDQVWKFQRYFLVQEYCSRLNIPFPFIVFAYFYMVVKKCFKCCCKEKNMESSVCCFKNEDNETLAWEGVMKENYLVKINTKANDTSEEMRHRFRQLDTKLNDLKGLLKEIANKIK
T3 sequence (O35433 whole entry): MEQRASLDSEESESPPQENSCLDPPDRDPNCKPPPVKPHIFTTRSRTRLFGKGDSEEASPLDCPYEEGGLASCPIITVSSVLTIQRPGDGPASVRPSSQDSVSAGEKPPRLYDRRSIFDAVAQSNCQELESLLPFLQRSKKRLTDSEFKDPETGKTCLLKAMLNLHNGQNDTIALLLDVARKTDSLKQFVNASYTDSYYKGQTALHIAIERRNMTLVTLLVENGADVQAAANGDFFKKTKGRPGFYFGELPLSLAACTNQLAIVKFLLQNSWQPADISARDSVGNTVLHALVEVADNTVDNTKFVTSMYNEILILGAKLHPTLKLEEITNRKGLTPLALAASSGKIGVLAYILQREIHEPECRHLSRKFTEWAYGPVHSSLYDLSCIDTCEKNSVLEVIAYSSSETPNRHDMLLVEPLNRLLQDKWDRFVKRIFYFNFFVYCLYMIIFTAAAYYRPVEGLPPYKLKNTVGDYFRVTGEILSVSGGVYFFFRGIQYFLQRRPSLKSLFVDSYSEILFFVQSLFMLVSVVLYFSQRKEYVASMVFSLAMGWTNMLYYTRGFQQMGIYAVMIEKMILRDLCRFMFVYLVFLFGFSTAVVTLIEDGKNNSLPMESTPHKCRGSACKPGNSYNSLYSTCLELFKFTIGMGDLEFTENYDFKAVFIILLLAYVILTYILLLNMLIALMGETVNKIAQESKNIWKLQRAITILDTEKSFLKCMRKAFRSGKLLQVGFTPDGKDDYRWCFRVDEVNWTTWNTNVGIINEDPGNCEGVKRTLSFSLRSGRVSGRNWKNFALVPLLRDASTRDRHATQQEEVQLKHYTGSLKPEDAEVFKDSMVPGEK

For `CC(C)c1ccc(NC(=O)Cn2cnc3c2c(=O)n(C)c(=O)n3C)cc1` [HC030031, 1,2,3,6-Tetrahydro-1,3-dimethyl-N-[4-(1-methylethyl)phenyl]-2,6-dioxo-7H-purine-7-acetamide], the “whole-cell patch-clamp, AITC-evoked currents in HEK293 cells, 5 μM” value on hTRPA1 [1] is given as “a reference TRPA1 antagonist, completely abrogated AITC-evoked ionic currents”.
`CCCCCCCCCCCC(=O)OCC(=O)NCc1cc(OC)c(O)cc1I` [AG1529, 2-((4-hydroxy-2-iodo-5-methoxybenzyl)amino)-2-oxoethyl dodecanoate] registered an inhibition at 10 µM against hTRPA1 [2] of approximately 40%. Moreover, the “%” value on hTRPM8 is listed as ~ 40%. For the same compound, the results for the IC50 against rTRPV1 and at hTRPV1 were 0.9 ± 0.2 µM and 0.9 ± 0.5 µM, respectively.
